Where “and” joins values, the source holds several entries; their conditions need not be identical. Equal values may be shown once. Where a SMILES comes first, the peptide text is derived from it. [ ]: non-standard residue; d: D form. The star is where a group is joined. pNA = O=[N+]([O-])c1ccc(N*)cc1
Assays:
Assay type in all cases: biochemical
[1] = target: Urokinase (high-molecular type) (Homo sapiens, UniProt P00749); assay: Km for synthetic substrate S-2288, urokinase high-molecular type; conditions: for comparison
[2] = target: T1, New type of plasminogen activator (non-urokinase tissue type, IMR-90 t-PA) produced by fibroblasts derived from human fetal lung tissue (Homo sapiens, UniProt P00750); assay: Km and Vmax for synthetic substrate S-2288, new type of plasminogen activator
T1 construct: Normal fibroblasts of strain IMR-90 (ATCC, CCL-186) derived from human fetal lung tissue were cultured in a serum-free medium; endogenous in cells; host or cells: IMR-90 (ATCC CCL-186) normal human fetal lung fibroblasts; protein purified from the serum-free culture medium
T1 sequence (P00750 36-562): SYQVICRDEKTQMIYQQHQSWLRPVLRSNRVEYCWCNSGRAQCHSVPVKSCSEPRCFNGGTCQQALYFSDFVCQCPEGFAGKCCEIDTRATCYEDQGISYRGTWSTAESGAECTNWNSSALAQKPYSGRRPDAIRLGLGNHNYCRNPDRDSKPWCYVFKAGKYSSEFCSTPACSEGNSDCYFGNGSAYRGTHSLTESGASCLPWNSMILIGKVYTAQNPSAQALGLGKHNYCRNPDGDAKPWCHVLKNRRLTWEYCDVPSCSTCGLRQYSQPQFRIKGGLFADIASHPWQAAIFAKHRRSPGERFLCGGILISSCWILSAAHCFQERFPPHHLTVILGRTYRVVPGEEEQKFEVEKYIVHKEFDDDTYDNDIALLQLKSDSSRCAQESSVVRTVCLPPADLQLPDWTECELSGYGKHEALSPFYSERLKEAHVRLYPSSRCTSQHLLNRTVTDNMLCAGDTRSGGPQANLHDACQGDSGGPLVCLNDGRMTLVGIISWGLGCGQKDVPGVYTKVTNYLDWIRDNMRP

[3] = target: Urokinase (low-molecular type) (Homo sapiens, UniProt P00749); assay: Vmax for synthetic substrate S-2288, urokinase low-molecular type; conditions: for comparison

## CC[C@@H](C)[C@@H](N)C(=O)N1CCC[C@H]1C(=O)N[C@@H](CCCNC(=N)N)C(=O)Nc1ccc([N+](=O)[O-])cc1 [S-2288, H.D.Ile-Pro-Arg-pNa.2HCl] (H-[dI]-Pro-Arg-pNA)
[1]
  Km: 500 µM
[2]; purified new type of plasminogen activator
  Km: 1160 µM and ~1160 µM
[2]; purified new type of plasminogen activator, Table 1
  Vmax for substrate S-2288: 1.7 × 10^-8 mol/min-unit
[2]; purified plasminogen activator, unit as printed in running text b36
  Vmax for substrate S-2288: about 1.7×10^-8 mol/liter
[3]
  Vmax for substrate S-2288: 5 × 10^-10 mol/min-unit

Reference: patent publication US5112754A, “Tissue plasminogen-activating factor and nonoclonal antibody” (Snow Brand Milk Products Co., Ltd., priority 1985, dated 1992)
